Laboratory results from PMC2846816 (Arthritis and rheumatism, 2009).
Structures can show the parent of a compound that is named as a salt. Where two headings read alike, the source gives them in different places. Values belong to the molecule of their own block, whether it stands above or below them.

How the values were obtained:
Test in all cases: Fura-2 Ca2+ influx
Format in all cases: cell-based
[1] = molecular target: T1, TRPV4 (Sus scrofa, UniProt B3VP30)
[2] = molecular target: T1, TRPV4; remark: listed apart in the source
[3] = molecular target: T1, TRPV4; remark: listed apart in the source

T1 sequence (B3VP30 1-871): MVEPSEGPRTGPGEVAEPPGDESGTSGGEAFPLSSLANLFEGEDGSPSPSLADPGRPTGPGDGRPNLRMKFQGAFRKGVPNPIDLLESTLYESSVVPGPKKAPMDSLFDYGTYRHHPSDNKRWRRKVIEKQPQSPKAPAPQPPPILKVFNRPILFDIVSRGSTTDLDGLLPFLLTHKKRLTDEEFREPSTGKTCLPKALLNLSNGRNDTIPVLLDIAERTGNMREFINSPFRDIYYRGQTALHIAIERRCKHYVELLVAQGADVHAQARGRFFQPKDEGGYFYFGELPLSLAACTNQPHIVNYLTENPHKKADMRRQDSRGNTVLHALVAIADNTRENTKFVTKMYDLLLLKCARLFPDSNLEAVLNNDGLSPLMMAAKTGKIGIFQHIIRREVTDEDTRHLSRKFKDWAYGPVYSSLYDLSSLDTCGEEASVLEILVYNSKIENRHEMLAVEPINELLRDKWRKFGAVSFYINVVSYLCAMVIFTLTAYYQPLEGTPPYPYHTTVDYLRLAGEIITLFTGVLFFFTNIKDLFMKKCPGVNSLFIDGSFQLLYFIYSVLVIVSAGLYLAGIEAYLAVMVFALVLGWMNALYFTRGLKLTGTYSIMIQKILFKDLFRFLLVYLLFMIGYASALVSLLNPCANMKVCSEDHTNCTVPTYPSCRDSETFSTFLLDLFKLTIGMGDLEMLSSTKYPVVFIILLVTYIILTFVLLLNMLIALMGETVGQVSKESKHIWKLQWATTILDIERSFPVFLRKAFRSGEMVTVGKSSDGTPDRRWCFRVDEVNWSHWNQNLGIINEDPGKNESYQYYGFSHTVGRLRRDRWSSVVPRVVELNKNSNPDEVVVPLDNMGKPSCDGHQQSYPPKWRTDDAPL

SMILES: Cl.Cl.Cl.Cl.Cl.Cl.N.N.N.N.N.N.N.N.N.N.N.N.N.N.[O-2].[O-2].[Ru+3].[Ru+3].[Ru+4] [Ruthenium Red]
IC50 [1]: ~5 nM

SMILES: CCCCCCCCCC(=O)O[C@@H]1[C@@H](C)[C@@]2(O)[C@@H](C=C(CO)C[C@@]3(O)C(=O)C(C)=C[C@@H]23)[C@@H]2C(C)(C)[C@]12OC(=O)CCCCCCCCC [4αPDD]
EC50 [2]: ~2000 nM

IC50 [3]: ~600 nM
SMILES: CN(CCc1ccc(Nc2ncc(-c3cccnc3)s2)cc1)Cc1ccccc1 [GSK205, N-(4-{2 [methyl(phenylmethyl)amino]ethyl}phenyl)-5-(3-pyridinyl)-1,3-thiazol-2-amine hydrobromide]
